Experimental data taken from ChEMBL document CHEMBL1125184, “Active conformation of 1,4-dihydropyridine calcium entry blockers. Effect of size of 2-aryl substituent on rotameric equilibria and receptor binding” (J Med Chem, 1991).

Assay: Slope was measured from percentage of specific binding with time

Point of comparison: `CCCC(=O)OC.CO/C(O)=C1/C(C)=NCCC1c1ccccc1I` (centres undefined), Slope 1.2. Against it:
- CCCC(=O)OC.CO/C(O)=C1/C(C)=NCCC1c1ccccc1Cl (centres undefined) — higher, 1.4
- CCCC(=O)OC.CO/C(O)=C1/C(C)=NCCC1c1ccccc1Br (centres undefined) — higher, 1.3
- CCCC(=O)OC.CO/C(O)=C1/C(C)=NCCC1c1ccccc1F (centres undefined) — higher, 1.6
